Test results published in US20090214578A1, “Immunostimulatory Single-Stranded Ribonucleic Acid with Phosphodiester Backbone” (priority 2005, published 2009).
Strand notation (5' to 3'): a small letter for the sugar, then the base; units joined by * are phosphorothioate-linked, units joined directly phosphodiester-linked; [ ] holds rarer units or linkages, { } end groups; capitals alone tell only the bases. r = 2'-OH (RNA)

Columns and labels:
murine cells [1] = assay: Stimulatory capacity of ORN with PTO or PD backbone in murine cells; type: cell-based; conditions: TLR7-independent fashion
From the text: (§1) To further investigate the role of TLR9 in the recognition of PD ssRNA, various RNA sequences, such as RNA41 (5′-[…]-3′; SEQ ID NO:4) and RNA42 (5′-[…]-3′; SEQ ID NO:5) that have been previously described as not active in murine cells when synthesized with a PTO backbone (Heil, Hemmi et al. 2004), were synthesized.

human PBMCs = assay: Stimulatory capacity of ORN with PTO or PD backbone in human PBMCs; type: cell-based
From the text: as §1

TLR9-deficient mDC = assay: IL-12p40 production by TLR9-deficient mDC; type: cell-based, murine
From the text: as §1

pDC, wild-type cells = assay: Recognition of ssRNA by pDC, wild-type cells; type: cell-based, murine; conditions: for Recognition by pDC: wild-type cells
From the text: as §1

[2] = tested on: pDC, TLR7-single deficient cells; assay: Recognition of ssRNA by pDC, TLR7-single deficient cells; type: cell-based, murine
From the text: as §1

[3] = tested on: pDC, TLR9-single deficient cells; assay: Recognition of ssRNA by pDC, TLR9-single deficient cells; type: cell-based, murine
From the text: as §1

[4] = tested on: Wild-type FLT3-L-induced DCs; assay: IL-12 secretion of siRNA-treated wild-type FLT3-L-induced DCs on ssRNA stimulation; type: cell-based, murine; conditions: wild-type FLT3-L-induced DCs treated with mTLR8-specific siRNA; for reduction in IL-12 secretion in mTLR8-specific siRNA-treated cells: then stimulated with the ORN
From the text: (§2) The reduction in RNA63-driven immune activation correlated with siRNA-driven downregulation of mTLR8 RNA.

murine cells [5] = conditions: synthesized with a PTO backbone; Heil, Hemmi et al. 2004; cited from earlier work
[6] = tested on: TLR3/TLR7 double deficient FLT3-L-induced DCs; assay: ssRNA stimulation of TLR3/TLR7 double deficient FLT3-L-induced DCs; type: cell-based, mice
From the text: (§3) Since the ssRNA-driven TLR7-independent immune stimulation is dependent on MyD88 and endosomal maturation, it was hypothesized that other intracellular TLRs are involved. TLR3 seems a poor candidate for the recognition of ssRNA since it mainly relies on the adaptor molecule TRIF and not MyD88 (Hoebe, Du et al. 2003). Nevertheless, to rule out TLR3 as receptor for ssRNA, TLR3- and TLR7-deficient mice were crossed to obtain TLR3/TLR7 double deficient mice, and immune cells from these mice were tested for ssRNA stimulation. […] TLR7/TLR9 double deficient mice were also generated to investigate the involvement of TLR9 in RNA63 recognition.

[7] = tested on: TLR7/TLR9 double deficient GM-CSF-derived DCs; assay: ssRNA stimulation of TLR7/TLR9 double deficient GM-CSF-derived DCs; type: cell-based, mice
From the text: as §3

[8] = tested on: TLR7/TLR9 double deficient sorted mDCs; assay: ssRNA stimulation of TLR7/TLR9 double deficient sorted mDCs; type: cell-based, mice
From the text: as §3

[9] = tested on: TLR7-deficient FLT3-L-induced DCs; assay: RNA63-induced activation of siRNA-transfected TLR7-deficient FLT3-L-induced DCs; type: cell-based, murine
From the text: as §2

[10] = tested on: peripheral blood mononuclear cells from wild-type mice; assay: IL-12p40 ELISA on supernatants of peripheral blood mononuclear cells, wild-type mice; type: cell-based; conditions: added with DOTAP, 24 hours, FIG. 2
Experimental: (§4) Peripheral blood mononuclear cells were isolated from wild-type and TLR7−/− mice, transferred into suitable growth medium, and then aliquoted separately into individual wells of multiwell culture plates. The following agents were added to individual wells of cells: RNA63 PD, a single-stranded ORN having a nucleotide sequence provided as 5′-CAGGUCUGUGAU-3′ (SEQ ID NO:1), in which all internucleotide linkages are phosphodiester except for a phosphorothioate linkage between the A and U at the 3′ end of the ORN; RNA63 PTO, a single-stranded ORN having the same nucleotide sequence as SEQ ID NO: 1, in which every internucleotide linkage is phosphorothioate; CpG-ODN 1668, an oligodeoxynucleotide having a nucleotide sequence provided as 5′-[…]-3′ (SEQ ID NO:2); DOTAP alone; R-848; RNA63 PTO plus DOTAP; RNA63 PD plus DOTAP; and medium alone. Cells were maintained in culture for 24 hours, and then supernatants from individual wells collected and analyzed using enzyme-linked immunosorbent assay (ELISA) specific for IL-12p40. Data are presented as mean±SEM.

[11] = tested on: peripheral blood mononuclear cells from TLR7−/− mice; assay: IL-12p40 ELISA on supernatants of peripheral blood mononuclear cells, TLR7−/− mice; type: cell-based; conditions: TLR 7−/− cells, added with DOTAP, 24 hours, FIG. 2
Experimental: as §4

[12] = tested on: wild-type FLT3-L-induced dendritic cells; assay: Cytokine ELISA (IL-12p40, IL-6, IFN-α), FLT3-L-induced dendritic cells, wild-type; type: cell-based, mice; conditions: with DOTAP, 24 hours; for IL-12p40 induction: FIG. 3A; for IL-6 induction: FIG. 3B; for IFN-α induction: FIG. 3C
Experimental: (§5) FLT3-L-induced dendritic cells were prepared from wild-type and TLR7−/− mice and cultured in the presence of varied amounts of RNA63 PD or RNA63 PTO, each with DOTAP. After 24 hours incubation, supernatants were collected and analyzed by ELISA for IL-12p40, IL-6, and IFN-α. LPS, R-848, CpG-ODN 1668, CpG-ODN 2216 (5′-GGGGGACGATCGTCGGGGG-3′, SEQ ID NO:3), DOTAP alone, and medium alone were run as controls. Data are presented as mean±SEM.

[13] = tested on: TLR7−/− FLT3-L-induced dendritic cells; assay: Cytokine ELISA (IL-12p40, IL-6, IFN-α), FLT3-L-induced dendritic cells, TLR7−/−; type: cell-based, mice; conditions: for IFN-α induction / IL-6 induction / IL-12p40 induction: with DOTAP, 24 hours
Experimental: as §5

[14] = tested on: wild-type FLT3-L-induced dendritic cells; assay: FACS for CD69 on FLT3-L-induced dendritic cells, wild-type; type: cell-based, mice; conditions: with DOTAP, 24 hours, FIG. 4
Experimental: (§6) FLT3-L-induced dendritic cells were prepared from wild-type and TLR7−/− mice and cultured for 24 hours in the presence of RNA63 PD or RNA63 PTO, each with DOTAP, as in Example 2. After 24 hours incubation, cells were collected and analyzed by FACS for CD69.

[15] = tested on: TLR7−/− FLT3-L-induced dendritic cells; assay: FACS for CD69 on FLT3-L-induced dendritic cells, TLR7−/−; type: cell-based, mice; conditions: with DOTAP, 24 hours, FIG. 4
Experimental: as §6

[16] = tested on: M-CSF-derived macrophages from wild-type mice; assay: IL-12p40 ELISA, M-CSF-derived macrophages, wild-type; type: cell-based; conditions: with DOTAP, 24 hours, FIG. 5
Experimental: (§7) M-CSF-derived macrophages and GM-CSF-derived dendritic cells were prepared from wild-type and TLR7−/− mice and cultured for 24 hours in the presence of RNA63 PD plus DOTAP, RNA63 PTO plus DOTAP. LPS, R-848, CpG-ODN 1668, CpG-ODN 2216, DOTAP alone, or medium alone. Culture supernatants were then collected and analyzed using ELISA for IL-12p40. Data are presented as mean±SEM.

[17] = tested on: TLR7−/− M-CSF-derived macrophages; assay: IL-12p40 ELISA, M-CSF-derived macrophages, TLR7−/−; type: cell-based, mice; conditions: with DOTAP, 24 hours, FIG. 5
Experimental: as §7

[18] = tested on: GM-CSF-derived dendritic cells from wild-type mice; assay: IL-12p40 ELISA, GM-CSF-derived dendritic cells, wild-type; type: cell-based; conditions: with DOTAP, 24 hours, FIG. 5
Experimental: as §7

[19] = tested on: TLR7−/− GM-CSF-derived dendritic cells; assay: IL-12p40 ELISA, GM-CSF-derived dendritic cells, TLR7−/−; type: cell-based, mice; conditions: with DOTAP, 24 hours, FIG. 5
Experimental: as §7

MyD88−/− dendritic cells [20] = assay: IL-12p40 ELISA, FLT3-L-induced dendritic cells, MyD88−/−; type: cell-based, mice; conditions: with DOTAP, 24 hours, FIG. 6
Experimental: (§8) FLT3-L-induced dendritic cells were separately prepared from wild-type, TLR7−/−, and MyD88−/− mice and cultured for 24 hours in the presence of RNA63 PD or RNA63 PTO, each with DOTAP, as in Example 2. After 24 hours incubation, cells were collected and analyzed by ELISA for IL-12p40 and by FACS for CD69.

MyD88−/− dendritic cells [21] = assay: FACS for CD69, FLT3-L-induced dendritic cells, MyD88−/−; type: cell-based, mice; conditions: with DOTAP, 24 hours, FIG. 6
Experimental: as §8

TLR7-deficient mDC = assay: IL-12p40 production by TLR7-deficient mDC; type: cell-based, murine; conditions: TLR7-single deficient mDC
From the text: as §1

Substance: 5′-ACCCAUCUAUUAUAUAACUC-3′ (listed as RNA, chemistry not fully specified) [RNA42 PD]
- IFN-α stimulation (murine cells [1]): stimulate
- IL-6 stimulation (murine cells [1]): stimulate
- IL-12p40 stimulation (murine cells [1]): stimulate
- IFN-α stimulation (human PBMCs): no IFN-α
- TNF-α stimulation (human PBMCs): stimulate
- IL-12p40 production (TLR9-deficient mDC): failed to produce IL-12p40

Substance: 5′-ACCCAUCUAUUAUAUAACUC-3′ (listed as RNA, chemistry not fully specified) [RNA42, PTO in the cited result, probably PD in pDC and siRNA tests]
- Recognition by pDC (pDC, wild-type cells): also recognized
- Response of pDC [2]: failed to respond
- Response of pDC [3]: failed to respond
- reduction in IL-12 secretion in mTLR8-specific siRNA-treated cells [4]: 50%
- Activity in murine cells (murine cells [5]): not active

Substance: 5′-CAGGUCUGUGAU-3′ (listed as RNA, chemistry not fully specified) [RNA63]
- RNA63-driven CD69 upregulation [6]: still functional
- RNA63-driven IL-12p40 production [6]: still functional
- CD69 upregulation [7]: failed
- IL-12p40 production [7]: failed to produce IL-12p40
- CD69 upregulation [8]: failed
- IL-12p40 production [8]: failed to produce IL-12p40
- RNA63-induced IL-12p40 production in DCs treated with mTLR8-specific siRNA [9]: strong reduction
- activation markers such as CD40 in DCs treated with mTLR8-specific siRNA ([9]; RNA63 stimulation): downregulation

Substance: 5′-CAGGUCUGUGAU-3′ [RNA63 PD] (one 3' phosphorothioate linkage, chemistry not fully specified)
- IL-12p40 induction [10]: induced IL-12p40
- IL-12p40 induction [11]: induced IL-12p40
- IL-12p40 induction [12]: induced significant amounts
- IL-6 induction [12]: induced significant amounts
- IFN-α induction [12]: induced significant amounts
- Dependence of the amount of IL-12p40 induced on concentration ([13]; varied amounts of ORN with DOTAP): varied in proportion to the concentration
- IFN-α induction [13]: albeit less strongly
- IL-6 induction [13]: albeit less strongly
- IL-12p40 induction [13]: induced IL-112p40
- CD69 induction [14]: induced significant amounts of CD69
- CD69 induction [15]: induced CD69
- IL-12p40 induction [16]: induced significant amounts of IL-12p40
- IL-12p40 induction [17]: induced significant amounts of IL-12p40
- IL-12p40 induction [18]: induced significant amounts of IL-12p40
- IL-12p40 induction [19]: induced significant amounts of IL-12p40
- induction of IL-12p40 (MyD88−/− dendritic cells [20]): absent
- induction of CD69 (MyD88−/− dendritic cells [21]): absent

Substance: 5′-CAGGUCUGUGAU-3′ [RNA63 PTO] (rC*rA*rG*rG*rU*rC*rU*rG*rU*rG*rA*rU) [reference compound]
- IL-12p40 induction [10]: induced IL-12p40
- IL-12p40 induction [11]: not
- IL-12p40 induction [12]: induced significant amounts
- IL-6 induction [12]: induced significant amounts
- IFN-α induction [12]: induced significant amounts
- IFN-α induction [13]: not
- IL-6 induction [13]: not
- IL-12p40 induction [13]: not
- CD69 induction [14]: induced significant amounts of CD69
- CD69 induction [15]: not
- IL-12p40 induction [16]: induced significant amounts of IL-12p40
- IL-12p40 induction [17]: not
- IL-12p40 induction [18]: induced significant amounts of IL-12p40
- IL-12p40 induction [19]: not
- induction of IL-12p40 (MyD88−/− dendritic cells [20]): absent
- induction of CD69 (MyD88−/− dendritic cells [21]): absent

Substance: 5′-GCCCGACAGAAGAGAGACAC-3′ (listed as RNA, chemistry not fully specified) [RNA41 PD]
- IFN-α stimulation (murine cells [1]): stimulate
- IL-6 stimulation (murine cells [1]): stimulate
- IL-12p40 stimulation (murine cells [1]): stimulate
- IFN-α stimulation (human PBMCs): no IFN-α
- TNF-α stimulation (human PBMCs): stimulate
- IL-12p40 production (TLR9-deficient mDC): failed to produce IL-12p40

Substance: 5′-GCCCGACAGAAGAGAGACAC-3′ (listed as RNA, chemistry not fully specified) [RNA41, PTO in the cited result, probably PD in pDC and siRNA tests]
- Recognition by pDC (pDC, wild-type cells): also recognized
- Response of pDC [2]: failed to respond
- Response of pDC [3]: failed to respond
- reduction in IL-12 secretion in mTLR8-specific siRNA-treated cells [4]: 75%
- Activity in murine cells (murine cells [5]): not active

Substance: 5′-GCCCGUCUGUUGUGUGACUC-3′ [RNA40, reference compound]
- IL-12p40 production (TLR9-deficient mDC): induced some IL-12p40
- IL-12p40 production (TLR7-deficient mDC): induced some IL-12p40
- TLR dependence of recognition by pDC (pDC, wild-type cells; GU-rich RNA): TLR7-dependent fashion
- Influence of mTLR8-specific siRNA on stimulation [4]: not influenced
